Measured values reported in article PMC11149339, “Necessity for higher teicoplanin doses in older adults: a multicenter prospective observational study in China” (BMC Geriatrics, 2024).

How the values were obtained:
[1] = Nephrotoxicity (acute kidney injury) during teicoplanin treatment; format: in vivo, human
Text: Patients with renal impairment at baseline were excluded. Nephrotoxicity was defined as acute renal impairment indicated by a serum creatinine increase of > 50% from baseline.

[2] = Therapeutic drug monitoring of teicoplanin concentration after drug withdrawal, LC-MS/MS; format: in vivo, human; details: for TDM Withdraw 8-14d (teicoplanin concentration): 8–14 days after last dose (withdrawal); for TDM Withdraw 8-14d (teicoplanin concentration) / TDM Withdraw 3d (teicoplanin concentration) / TDM Withdraw ≤ 7d (teicoplanin concentration) / TDM Withdraw ≥ 15d (teicoplanin concentration): median [IQR], LC-MS/MS; for TDM Withdraw 3d (teicoplanin concentration): 3 days after last dose (withdrawal); for TDM Withdraw ≤ 7d (teicoplanin concentration): ≤ 7 days after last dose (withdrawal); for TDM Withdraw ≥ 15d (teicoplanin concentration): ≥ 15 days after last dose (withdrawal); for patients with TDM 10–20 mg/L Withdraw ≥ 15d, N (%) / patients with TDM < 10 mg/L Withdraw ≥ 15d, N (%) / patients with TDM > 20 mg/L Withdraw ≥ 15d, N (%): ≥ 15 days after last dose
Protocol: Teicoplanin (Targocid, Sanofi, Dublin, Ireland) was administered intravenously for 30 min. The prescribed dose regimens were at the discretion of treating physicians, and the recommended regimens were not always followed.
Blood samples (5 mL) were collected from the elbow into ethylenediaminetetraacetic acid-containing Vacutainers® (Becton Dickinson, Milan, Italy) in the morning before teicoplanin administration and after drug withdrawal. Samples were promptly refrigerated and centrifuged at 2500 × g for 10 min before 2 mL of supernatant was preserved at -20 °C for subsequent analysis. Teicoplanin concentrations were determined using liquid chromatography-tandem mass spectrometry. The linear range of the method was 1.0–100.0 mg/L, and the lower limit of quantification was 1.0 mg/L. The relative standard deviation of intra- and inter-batch precision was ≤ 10%.
Teicoplanin concentrations were dynamically monitored. Concentrations at 3, ≤ 7, 8–14, and ≥ 15 days after the first dose and within 2 h of the next scheduled dose were recorded as TDM3d, TDM≤7d, TDM8-14d, and TDM≥15d, respectively. Concentrations at 3, ≤ 7, 8–14, and ≥ 15 days after the last teicoplanin dose (withdrawal) were recorded as TDMw3d, TDMw≤7d, TDMw8-14d, and TDMw≥15d. respectively (Fig. 1a). The Cmin target was ≥ 10 mg/L [6, 7, 23]; a concentration < 10 mg/L was considered suboptimal. Average TDM (TDMa) was defined as the mean Cmin after 3 days of treatment.

[3] = LR-A + MR-A (200 mg once daily, then 200 mg once daily)
[4] = LR-B + MR-A (400 mg once daily, then 200 mg once daily)
[5] = LR-C + MR-B (400 mg at 12-h intervals, then 400 mg once daily)
[6] = 8–14 days after last dose, LR-A + MR-A
[7] = 8–14 days after last dose, LR-B + MR-A
[8] = 8–14 days after last dose, LR-C + MR-B
[9] = LR-B + MR-B (400 mg once daily, then 400 mg once daily)
[10] = LR-C + MR-C (400 mg at 12-h intervals, then 400 mg twice daily)
[11] = 3 days after last dose, LR-A + MR-A
[12] = 3 days after last dose, LR-B + MR-A
[13] = 3 days after last dose, LR-B + MR-B
[14] = 3 days after last dose, LR-C + MR-B
[15] = 3 days after last dose, LR-C + MR-C
[16] = ≤ 7 days after last dose, LR-A + MR-A
[17] = ≤ 7 days after last dose, LR-B + MR-A
[18] = ≤ 7 days after last dose, LR-B + MR-B
[19] = ≤ 7 days after last dose, LR-C + MR-B
[20] = ≤ 7 days after last dose, LR-C + MR-C

Teicoplanin
incidence of acute kidney injury (AKI) / nephrotoxicity ([1]; TDMa < 10 mg/L (5/52)): 9.6% | incidence of acute kidney injury (AKI) / nephrotoxicity ([1]; TDMa = 10–20 mg/L (6/50)): 12.0% | incidence of acute kidney injury (AKI) / nephrotoxicity ([1]; TDMa = 20–40 mg/L (4/18)): 22.2% | incidence of acute kidney injury (AKI) / nephrotoxicity ([1]; all evaluable patients (15/120), serum creatinine increase > 50% from baseline): 12.5% | TDM Withdraw 8-14d (teicoplanin concentration) [2, 3]: 5.5[3.8,7.6] mg/L | TDM Withdraw 8-14d (teicoplanin concentration) [2, 4]: 5.0[3.4,6.6] mg/L | TDM Withdraw 8-14d (teicoplanin concentration) [2, 5]: 0[0,2.5] mg/L | TDM Withdraw 8-14d (teicoplanin concentration) ([2]; all patients (N = 204)): 5.3[3.3,7.0] mg/L | patients with TDM 10–20 mg/L Withdraw 8-14d, N (%) [2, 6]: 8(16.0) | patients with TDM < 10 mg/L Withdraw 8-14d, N (%) [2, 6]: 42(84.0) | patients with TDM > 20 mg/L Withdraw 8-14d, N (%) [2, 6]: 0 | patients with TDM 10–20 mg/L Withdraw 8-14d, N (%) [2, 7]: 7(14.6) | patients with TDM < 10 mg/L Withdraw 8-14d, N (%) [2, 7]: 40(83.3) | patients with TDM > 20 mg/L Withdraw 8-14d, N (%) [2, 7]: 1(2.1) | patients with TDM 10–20 mg/L Withdraw 8-14d, N (%) [2, 8]: 0 | patients with TDM < 10 mg/L Withdraw 8-14d, N (%) [2, 8]: 4(100) | patients with TDM > 20 mg/L Withdraw 8-14d, N (%) [2, 8]: 0 | patients having concentrations of 10–20 mg/L, TDMw8-14d ([2]; 8–14 days after last dose, all patients, 15 patients): 14.6% | patients having concentrations exceeding 20 mg/L, TDMw8-14d ([2]; 8–14 days after last dose, all patients, one patient): 1.0% | patients in whom the target concentration (≥ 10 mg/L) was achieved after withdrawal ([2]; 8–14 days after withdrawal, all patients): 15.6% | TDM Withdraw 3d (teicoplanin concentration) [2, 3]: 11.1[8.2,16.5] mg/L | TDM Withdraw 3d (teicoplanin concentration) [2, 4]: 9.6[7.2,13.8] mg/L | TDM Withdraw 3d (teicoplanin concentration) [2, 9]: 16.3[9.4,20.2] mg/L | TDM Withdraw 3d (teicoplanin concentration) [2, 5]: 8.4[5.3,11.7] mg/L | TDM Withdraw 3d (teicoplanin concentration) [2, 10]: 12.4[7.9,15.6] mg/L | TDM Withdraw 3d (teicoplanin concentration) ([2]; all patients (N = 204)): 10.6[7.9,15.6] mg/L | patients with TDM 10–20 mg/L Withdraw 3d, N (%) [2, 11]: 7(53.8) | patients with TDM < 10 mg/L Withdraw 3d, N (%) [2, 11]: 5(38.5) | patients with TDM > 20 mg/L Withdraw 3d, N (%) [2, 11]: 1(7.7) | patients with TDM 10–20 mg/L Withdraw 3d, N (%) [2, 12]: 6(42.9) | patients with TDM < 10 mg/L Withdraw 3d, N (%) [2, 12]: 7(50.0) | patients with TDM > 20 mg/L Withdraw 3d, N (%) [2, 12]: 1(7.1) | patients with TDM 10–20 mg/L Withdraw 3d, N (%) [2, 13]: 3(60) | patients with TDM < 10 mg/L Withdraw 3d, N (%) [2, 13]: 1(20) | patients with TDM > 20 mg/L Withdraw 3d, N (%) [2, 13]: 1(20) | patients with TDM 10–20 mg/L Withdraw 3d, N (%) [2, 14]: 2(25.0) | patients with TDM < 10 mg/L Withdraw 3d, N (%) [2, 14]: 6(75.0) | patients with TDM > 20 mg/L Withdraw 3d, N (%) [2, 14]: 0 | patients with TDM 10–20 mg/L Withdraw 3d, N (%) [2, 15]: 4(44.4) | patients with TDM < 10 mg/L Withdraw 3d, N (%) [2, 15]: 4(44.4) | patients with TDM > 20 mg/L Withdraw 3d, N (%) [2, 15]: 1(11.2) | patients having concentrations of 10–20 mg/L, TDMw3d ([2]; 3 days after last dose, all patients, 22 patients): 44.9% | patients having concentrations exceeding 20 mg/L, TDMw3d ([2]; 3 days after last dose, all patients, four patients): 8.2% | patients in whom the target concentration (≥ 10 mg/L) was achieved after withdrawal ([2]; 3 days after withdrawal, all patients): 53.1% | TDM Withdraw ≤ 7d (teicoplanin concentration) [2, 3]: 7.9[5.8,11.4] mg/L | TDM Withdraw ≤ 7d (teicoplanin concentration) [2, 4]: 7.2[5.6,12.0] mg/L | TDM Withdraw ≤ 7d (teicoplanin concentration) [2, 9]: 12.3[7.7,17.0] mg/L | TDM Withdraw ≤ 7d (teicoplanin concentration) [2, 5]: 6.3[3.4,9.4] mg/L | TDM Withdraw ≤ 7d (teicoplanin concentration) [2, 10]: 7.5[3.2,15.6] mg/L | TDM Withdraw ≤ 7d (teicoplanin concentration) ([2]; all patients (N = 204)): 7.4[5.7,12.0] mg/L | patients with TDM 10–20 mg/L Withdraw ≤ 7d, N (%) [2, 16]: 13(28.3) | patients with TDM < 10 mg/L Withdraw ≤ 7d, N (%) [2, 16]: 30(65.2) | patients with TDM > 20 mg/L Withdraw ≤ 7d, N (%) [2, 16]: 3(6.5) | patients with TDM 10–20 mg/L Withdraw ≤ 7d, N (%) [2, 17]: 14(29.8) | patients with TDM < 10 mg/L Withdraw ≤ 7d, N (%) [2, 17]: 31(66.0) | patients with TDM > 20 mg/L Withdraw ≤ 7d, N (%) [2, 17]: 2(4.2) | patients with TDM 10–20 mg/L Withdraw ≤ 7d, N (%) [2, 18]: 2(40) | patients with TDM < 10 mg/L Withdraw ≤ 7d, N (%) [2, 18]: 2(40) | patients with TDM > 20 mg/L Withdraw ≤ 7d, N (%) [2, 18]: 1(20) | patients with TDM 10–20 mg/L Withdraw ≤ 7d, N (%) [2, 19]: 2(18.2) | patients with TDM < 10 mg/L Withdraw ≤ 7d, N (%) [2, 19]: 9(81.8) | patients with TDM > 20 mg/L Withdraw ≤ 7d, N (%) [2, 19]: 0 | patients with TDM 10–20 mg/L Withdraw ≤ 7d, N (%) [2, 20]: 2(22.2) | patients with TDM < 10 mg/L Withdraw ≤ 7d, N (%) [2, 20]: 6(66.7) | patients with TDM > 20 mg/L Withdraw ≤ 7d, N (%) [2, 20]: 1(11.1) | patients having concentrations of 10–20 mg/L, TDMw≤7d ([2]; ≤ 7 days after last dose, all patients, 33 patients): 28.0% | patients having concentrations exceeding 20 mg/L, TDMw≤7d ([2]; ≤ 7 days after last dose, all patients, seven patients): 5.9% | patients in whom the target concentration (≥ 10 mg/L) was achieved after withdrawal ([2]; ≤ 7 days after withdrawal, all patients): 33.9% | TDM Withdraw ≥ 15d (teicoplanin concentration) [2, 3]: 4.54[0,7.3] mg/L | TDM Withdraw ≥ 15d (teicoplanin concentration) [2, 4]: 4.1[0,7.0] mg/L | TDM Withdraw ≥ 15d (teicoplanin concentration) [2, 5]: 0[0,0] mg/L | TDM Withdraw ≥ 15d (teicoplanin concentration) [2, 10]: 2.1[0,2.8] mg/L | TDM Withdraw ≥ 15d (teicoplanin concentration) ([2]; all patients (N = 204)): 3.5[0,6.4] mg/L | patients with TDM 10–20 mg/L Withdraw ≥ 15d, N (%) ([2]; LR-A + MR-A): 1(2.4) | patients with TDM < 10 mg/L Withdraw ≥ 15d, N (%) ([2]; LR-A + MR-A): 41(97.6) | patients with TDM > 20 mg/L Withdraw ≥ 15d, N (%) ([2]; LR-A + MR-A): 0 | patients with TDM 10–20 mg/L Withdraw ≥ 15d, N (%) ([2]; LR-B + MR-A): 4(10.5) | patients with TDM < 10 mg/L Withdraw ≥ 15d, N (%) ([2]; LR-B + MR-A): 34(89.5) | patients with TDM > 20 mg/L Withdraw ≥ 15d, N (%) ([2]; LR-B + MR-A): 0 | patients with TDM 10–20 mg/L Withdraw ≥ 15d, N (%) ([2]; LR-C + MR-B): 0 | patients with TDM < 10 mg/L Withdraw ≥ 15d, N (%) ([2]; LR-C + MR-B): 5(100) | patients with TDM > 20 mg/L Withdraw ≥ 15d, N (%) ([2]; LR-C + MR-B): 0 | patients with TDM 10–20 mg/L Withdraw ≥ 15d, N (%) ([2]; LR-C + MR-C): 0 | patients with TDM < 10 mg/L Withdraw ≥ 15d, N (%) ([2]; LR-C + MR-C): 5(100) | patients with TDM > 20 mg/L Withdraw ≥ 15d, N (%) ([2]; LR-C + MR-C): 0 | patients in whom the target concentration (≥ 10 mg/L) was achieved after withdrawal ([2]; ≥ 15 days after withdrawal, all patients): 5.5% | patients in whom teicoplanin remained detectable ([2]; ≥ 15 days after withdrawal, lower limit of quantification 1.0 mg/L): two-thirds
